# Counter-ions that a name gives are not always drawn.
# Target: T1, AM2 receptor (CALCRL+RAMP3) (Homo sapiens, UniProt O60896+Q16602)
# T1 construct: host or cells: 1321N1
# Test: AM2 receptor inhibition, LANCE TR-FRET cAMP agonist-antagonist competition assay
# Format: cell-based
# Settings: inhibition of AM induced cAMP activation; 1321N1 cells transfected with CALCRL+RAMP3; read-out: AM2 pIC50 (converted)
# T1 sequence (Q16602 23-461): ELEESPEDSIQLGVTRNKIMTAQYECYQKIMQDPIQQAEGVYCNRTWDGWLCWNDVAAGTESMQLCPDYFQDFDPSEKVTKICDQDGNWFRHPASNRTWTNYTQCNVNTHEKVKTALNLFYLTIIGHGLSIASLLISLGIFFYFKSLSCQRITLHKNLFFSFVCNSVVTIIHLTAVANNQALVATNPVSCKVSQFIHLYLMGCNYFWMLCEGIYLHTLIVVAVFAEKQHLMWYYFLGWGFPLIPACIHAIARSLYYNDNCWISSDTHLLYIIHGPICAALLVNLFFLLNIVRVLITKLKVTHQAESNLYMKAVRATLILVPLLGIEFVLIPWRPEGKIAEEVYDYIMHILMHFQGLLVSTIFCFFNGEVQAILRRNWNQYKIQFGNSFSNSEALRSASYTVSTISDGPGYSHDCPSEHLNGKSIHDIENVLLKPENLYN
# T1 sequence (O60896 24-148): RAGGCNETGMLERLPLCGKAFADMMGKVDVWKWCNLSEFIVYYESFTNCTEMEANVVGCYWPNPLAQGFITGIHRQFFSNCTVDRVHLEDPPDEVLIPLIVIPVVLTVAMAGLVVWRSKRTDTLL
row,Structure (SMILES),IC50
1,"CCC1(C(=O)N(CC(=O)Nc2ccc3c(c2)C[C@@]2(C3)C(=O)Nc3ncccc32)Cc2ccccc2CNC)CCOCC1 [Example 98, 4-Ethyl-N-[[2-(methylaminomethyl)phenyl]methyl]-N-[2-oxo-2-[[(3R)-2-oxospiro[1H-pyrrolo [2,3-b]pyridine-3,2′-indane]-5′-yl]amino]ethyl]tetrahydropyran-4-carboxamide 2,2,2 trifluoroacetate]",21.4 nM
2,"CNCc1ccccc1CN(CC(=O)Nc1ccc2c(c1)CC1(C2)C(=O)Nc2ncccc21)C(=O)C1CCCN1C(C)=O (stereo not shown) [Example 69, 1-Acetyl-N-[[2-(methylaminomethyl)phenyl]methyl]-N-[2-oxo-2-[(2-oxospiro[1H-pyrrolo[2,3-b]pyridine-3,2′-indane]-5′-yl)amino]ethyl]pyrrolidine-2-carboxamide]",129 nM
3,"CC(C)(C)C(=O)N(CC(=O)Nc1ccc2c(c1)CC1(C2)C(=O)Nc2ncccc21)Cc1ccccc1CN1CC(F)C1 (stereo not shown) [Example 10, N-(2-((3-Fluoroazetidin-1-yl)methyl)benzyl)-N-(2-oxo-2-((2′-oxo-1,1′,2′,3-tetrahydrospiro[indene-2,3′-pyrrolo[2,3-b]pyridin]-5-yl)amino)ethyl)pivalamide]",91.2 nM
4,"CC(C)(C)C(=O)N(CC(=O)Nc1ccc2c(c1)CC1(C2)C(=O)Nc2ncccc21)Cc1ccccc1C(=N)NO (stereo not shown) [Example 41, N-(2-(N-Hydroxycarbamimidoyl)benzyl)-N-(2-oxo-2-((2′-oxo-1,1′,2′,3-tetrahydrospiro[indene-2,3′-pyrrolo[2,3-b]pyridin]-5-yl)amino)ethyl)pivalamide]",100 nM
5,"CNCc1ccccc1CN(CC(=O)Nc1ccc2c(n1)CC1(C2)C(=O)Nc2ncccc21)C(=O)C(C)(C)C (stereo not shown) [Example 104, N-(2-((methylamino)methyl)benzyl)-N-(2-oxo-2-((2′-oxo-1′,2′,5,7-tetrahydrospiro[cyclopenta[b]pyridine-6,3′-pyrrolo[2,3-b]pyridin]-2-yl)amino)ethyl)pivalamide]",151 nM
6,"CNCc1c(F)cccc1CN(CC(=O)Nc1ccc2c(c1)CC1(C2)C(=O)Nc2ncccc21)C(=O)C(C)(C)C (stereo not shown) [Example 36, N-(3-fluoro-2-((methylamino)methyl)benzyl)-N-(2-oxo-2-((2′-oxo-1,1′,2′,3-tetrahydrospiro[indene-2,3′-pyrrolo[2,3-b]pyridin]-5-yl)amino)ethyl)pivalamide]",93.3 nM
7,"CNCc1ccccc1CN(CC(=O)Nc1ccc2c(c1)CC1(C2)C(=O)Nc2ncccc21)C(=O)NC1CCCC1 (stereo not shown) [Example 83, 2-(3-Cyclopentyl-1-(2-((methylamino)methyl)benzyl)ureido)-N-(2′-oxo-1,1′,2′,3-tetrahydrospiro[indene-2,3′-pyrrolo[2,3-b]pyridin]-5-yl)acetamide]",42.7 nM
8,"CNCc1cc(F)c(F)cc1CN(CC(=O)Nc1ccc2c(c1)CC1(C2)C(=O)Nc2ncccc21)C(=O)C(C)(C)C (stereo not shown) [Example 37, N-(4,5-difluoro-2-((methylamino)methyl)benzyl)-N-(2-oxo-2-((2′-oxo-1,1′,2′,3-tetrahydrospiro[indene-2,3′-pyrrolo[2,3-b]pyridin]-5-yl)amino)ethyl)pivalamide]",145 nM
9,"O=C(CN(Cc1ccccc1CN1CCC1)C(=O)CC(F)(F)F)Nc1ccc2c(c1)CC1(C2)C(=O)Nc2ncccc21 (stereo not shown) [Example 45, N-(2-(Azetidin-1-ylmethyl)benzyl)-3,3,3-trifluoro-N-(2-oxo-2-((2′-oxo-1,1′,2,3-tetrahydrospiro[indene-2,3′-pyrrolo[2,3-b]pyridin]-5-yl)amino)ethyl)propanamide]",245 nM
10,"CN(C)CCNCc1ccccc1CN(CC(=O)Nc1ccc2c(c1)CC1(C2)C(=O)Nc2ncccc21)C(=O)C(C)(C)C (stereo not shown) [Example 7, N-(2-(((2-(Dimethylamino)ethyl)amino)methyl)benzyl)-N-(2-oxo-2-((2′-oxo-1,1′,2′,3-tetrahydrospiro[indene-2,3′-pyrrolo[2,3-b]pyridine]-5-yl)amino)ethyl)pivalamide]",126 nM
11,"CNCc1ccccc1CN(CC(=O)Nc1ccc2c(c1)CC1(C2)C(=O)Nc2ncccc21)C(=O)N1CCCCC1 (stereo not shown) [Example 87, N-(2-((Methylamino)methyl)benzyl)-N-(2-oxo-2-((2′-oxo-1,1′,2′,3-tetrahydrospiro[indene-2,3′-pyrrolo[2,3-b]pyridin]-5-yl)amino)ethyl)piperidine-1-carboxamide]",43.7 nM
12,"CNCc1ccccc1CN(CC(=O)Nc1ccc2c(c1)CC1(C2)C(=O)Nc2ncccc21)C(=O)N1CCC(OC)C1 (stereo not shown) [Example 67, 3-Methoxy-N-[[2-(methylaminomethyl)phenyl]methyl]-N-[2-oxo-2-[(2-oxospiro[1H-pyrrolo[2,3-b]pyridine-3,2′-indane]-5′-yl)amino]ethyl]pyrrolidine-1-carboxamide]",64.6 nM
13,"CC(C)(C)C(=O)N(CC(=O)Nc1ccc2c(c1)C[C@@]1(C2)C(=O)Nc2ncccc21)C1CNCc2ccccc21 (stereo partly shown) [Example 101, 2,2-Dimethyl-N-[2-oxo-2-[(2-oxospiro[1H-pyrrolo[2,3-b]pyridine-3,2′-indane]-5′-yl)amino]ethyl]-N-(1,2,3,4-tetrahydroisoquinolin-4-yl)propanamide 2,2,2-trifluoroacetate]",39.8 nM
14,"CNCc1ccccc1CN(CC(=O)Nc1ccc2c(c1)CC1(C2)C(=O)Nc2ncccc21)C(=O)COC (stereo not shown) [Example 57, 2-Methoxy-N-(2-((methylamino)methyl)benzyl)-N-(2-oxo-2-((2′-oxo-1,1′,2′,3-tetrahydrospiro[indene-2,3′-pyrrolo[2,3-b]pyridin]-5-yl)amino)ethyl)acetamide]",269 nM
15,"CNCc1ccccc1CN(CC(=O)Nc1ccc2c(c1)CC1(C2)C(=O)Nc2ncccc21)C(=O)N(C)OC (stereo not shown) [Example 82, 2-(3-Methoxy-3-methyl-1-(2-((methylamino)methyl)benzyl)ureido)-N-(2′-oxo-1,1′,2′,3-tetrahydrospiro[indene-2,3′-pyrrolo[2,3-b]pyridin]-5-yl)acetamide]",263 nM
16,"CN(C)Cc1ccccc1CN(CC(=O)Nc1ccc2c(c1)CC1(C2)C(=O)Nc2ncccc21)C(=O)C(C)(C)C (stereo not shown) [Example 30, N-(2-((Dimethylamino)methyl)benzyl)-N-(2-oxo-2-((2′-oxo-1,1′,2′,3-tetrahydrospiro[indene-2,3′-pyrrolo[2,3-b]pyridin]-5-yl)amino)ethyl)pivalamide]",29.5 nM
17,"CNCc1ccccc1CN(CC(=O)Nc1ccc2c(c1)CC1(C2)C(=O)Nc2ncccc21)C(=O)N(C)C (stereo not shown) [Example 85, 2-(3,3-Dimethyl-1-(2-((methylamino)methyl)benzyl)ureido)-N-(2′-oxo-1,1′,2′,3-tetrahydrospiro[indene-2,3′-pyrrolo[2,3-b]pyridin]-5-yl)acetamide]",234 nM
18,"CC(C)(C)C(=O)N(CC(=O)Nc1ccc2c(c1)CC1(C2)C(=O)Nc2ncccc21)Cc1ccccc1CNCC(F)F (stereo not shown) [Example 3, N-(2-(((2,2-Difluoroethyl)amino)methyl)benzyl)-N-(2-oxo-2-((2′-oxo-1,1′,2′,3-tetrahydrospiro[indene-2,3′-pyrrolo[2,3-b]pyridine]-5-yl)amino)ethyl)pivalamide]",324 nM
19,"CC1(C(=O)N(CC(=O)Nc2ccc3c(c2)CC2(C3)C(=O)Nc3ncccc32)Cc2ccccc2CN2CCC2)CC1 (stereo not shown) [Example 47, N-(2-(Azetidin-1-ylmethyl)benzyl)-1-methyl-N-(2-oxo-2-((2′-oxo-1,1′,2′,3-tetrahydrospiro[indene-2,3′-pyrrolo[2,3-b]pyridin]-5-yl)amino)ethyl)-cyclopropanecarboxamide]",15.5 nM
20,"O=C(CN(Cc1ccccc1CN1CCC1)C(=O)c1ccccc1)Nc1ccc2c(c1)CC1(C2)C(=O)Nc2ncccc21 (stereo not shown) [Example 51, N-(2-(Azetidin-1-ylmethyl)benzyl)-N-(2-oxo-2-((2′-oxo-1,1′,2′,3-tetrahydrospiro[indene-2,3′-pyrrolo[2,3-b]pyridin]-5-yl)amino)ethyl)benzamide]",85.1 nM
21,"CNCc1ccccc1CN(CC(=O)Nc1ccc2c(c1)CC1(C2)C(=O)Nc2ncccc21)C(=O)N1CCCC1 (stereo not shown) [Example 81, N-(2-((Methylamino)methyl)benzyl)-N-(2-oxo-2-((2′-oxo-1,1′,2′,3-tetrahydrospiro[indene-2,3′-pyrrolo[2,3-b]pyridin]-5-yl)amino)ethyl)pyrrolidine-1-carboxamide]",7.41 nM
22,"COC(=O)N(CC(=O)Nc1ccc2c(c1)CC1(C2)C(=O)Nc2ncccc21)Cc1ccccc1CN1CCC1 (stereo not shown) [Example 50, Methyl 2-(azetidin-1-ylmethyl)benzyl(2-oxo-2-((2′-oxo-1,1′,2′,3-tetrahydrospiro[indene-2,3′-pyrrolo[2,3-b]pyridin]-5-yl)amino)ethyl)carbamate]",74.1 nM
23,"CNCc1ccccc1CN(CC(=O)Nc1ccc2c(c1)CC1(C2)C(=O)Nc2ncccc21)C(=O)C1(C(F)(F)F)CC1 (stereo not shown) [Example 75, N-[[2-(methylaminomethyl)phenyl]methyl]-N-[2-oxo-2-[(2-oxospiro[1H-pyrrolo[2,3-b]pyridine-3,2′-indane]-5′-yl)amino]ethyl]-1-(trifluoromethyl)cyclopropanecarboxamide 2,2,2-trifluoroacetate]",3.63 nM
24,"CNCc1ccccc1CN(CC(=O)Nc1ccc2c(c1)C[C@@]1(C2)C(=O)Nc2ncccc21)C(=O)C(C)(C)F [Example 95, (R)-2-Fluoro-2-methyl-N-(2-((methylamino)methyl)benzyl)-N-(2-oxo-2-((2′-oxo-1,1′,2′,3-tetrahydrospiro[indene-2,3′-pyrrolo[2,3-b]pyridin]-5-yl)amino)ethyl)propanamide 2,2,2-trifluoroacetate]",28.8 nM
25,"NCc1ccccc1CN(CC(=O)Nc1ccc2c(c1)C[C@@]1(C2)C(=O)Nc2ncccc21)C(=O)C1(C(F)(F)F)CC1 [Example 99, N-[[2-(Aminomethyl)phenyl]methyl]-N-[2-oxo-2-[(2-oxospiro[1H-pyrrolo[2,3-b]pyridine-3,2′-indane]-5′-yl)amino]ethyl]-1-(trifluoromethyl)cyclopropylcarboxamide 2,2,2-trifluoroacetate]",245 nM

# Source: patent publication US11400081B2, “Compounds” (The University of Sheffield, priority 2017, dated 2022)
